Results: patent US5330992A, “1-cyclopropyl-4-pyridyl-quinolinones” (priority 1992, dated 1994)

Columns and labels:
human topoisomerase II = target: T1, human topoisomerase II (Homo sapiens, UniProt P11388); experiment: Mammalian Topoisomerase II Inhibition Assay (DNA-topo II complex formation); assay type: biochemical; settings: EC50 = concentration with activity equal to EC50 of reference mAMSA; read-out: TopoII Inh. EC50
T1 construct: Topo II was purified from late log phase suspension cultures of HeLa WIS; endogenous in cells; host or cells: HeLa WIS suspension cultures, late log phase (enzyme purified from the cells)
T1 sequence (P11388 whole entry): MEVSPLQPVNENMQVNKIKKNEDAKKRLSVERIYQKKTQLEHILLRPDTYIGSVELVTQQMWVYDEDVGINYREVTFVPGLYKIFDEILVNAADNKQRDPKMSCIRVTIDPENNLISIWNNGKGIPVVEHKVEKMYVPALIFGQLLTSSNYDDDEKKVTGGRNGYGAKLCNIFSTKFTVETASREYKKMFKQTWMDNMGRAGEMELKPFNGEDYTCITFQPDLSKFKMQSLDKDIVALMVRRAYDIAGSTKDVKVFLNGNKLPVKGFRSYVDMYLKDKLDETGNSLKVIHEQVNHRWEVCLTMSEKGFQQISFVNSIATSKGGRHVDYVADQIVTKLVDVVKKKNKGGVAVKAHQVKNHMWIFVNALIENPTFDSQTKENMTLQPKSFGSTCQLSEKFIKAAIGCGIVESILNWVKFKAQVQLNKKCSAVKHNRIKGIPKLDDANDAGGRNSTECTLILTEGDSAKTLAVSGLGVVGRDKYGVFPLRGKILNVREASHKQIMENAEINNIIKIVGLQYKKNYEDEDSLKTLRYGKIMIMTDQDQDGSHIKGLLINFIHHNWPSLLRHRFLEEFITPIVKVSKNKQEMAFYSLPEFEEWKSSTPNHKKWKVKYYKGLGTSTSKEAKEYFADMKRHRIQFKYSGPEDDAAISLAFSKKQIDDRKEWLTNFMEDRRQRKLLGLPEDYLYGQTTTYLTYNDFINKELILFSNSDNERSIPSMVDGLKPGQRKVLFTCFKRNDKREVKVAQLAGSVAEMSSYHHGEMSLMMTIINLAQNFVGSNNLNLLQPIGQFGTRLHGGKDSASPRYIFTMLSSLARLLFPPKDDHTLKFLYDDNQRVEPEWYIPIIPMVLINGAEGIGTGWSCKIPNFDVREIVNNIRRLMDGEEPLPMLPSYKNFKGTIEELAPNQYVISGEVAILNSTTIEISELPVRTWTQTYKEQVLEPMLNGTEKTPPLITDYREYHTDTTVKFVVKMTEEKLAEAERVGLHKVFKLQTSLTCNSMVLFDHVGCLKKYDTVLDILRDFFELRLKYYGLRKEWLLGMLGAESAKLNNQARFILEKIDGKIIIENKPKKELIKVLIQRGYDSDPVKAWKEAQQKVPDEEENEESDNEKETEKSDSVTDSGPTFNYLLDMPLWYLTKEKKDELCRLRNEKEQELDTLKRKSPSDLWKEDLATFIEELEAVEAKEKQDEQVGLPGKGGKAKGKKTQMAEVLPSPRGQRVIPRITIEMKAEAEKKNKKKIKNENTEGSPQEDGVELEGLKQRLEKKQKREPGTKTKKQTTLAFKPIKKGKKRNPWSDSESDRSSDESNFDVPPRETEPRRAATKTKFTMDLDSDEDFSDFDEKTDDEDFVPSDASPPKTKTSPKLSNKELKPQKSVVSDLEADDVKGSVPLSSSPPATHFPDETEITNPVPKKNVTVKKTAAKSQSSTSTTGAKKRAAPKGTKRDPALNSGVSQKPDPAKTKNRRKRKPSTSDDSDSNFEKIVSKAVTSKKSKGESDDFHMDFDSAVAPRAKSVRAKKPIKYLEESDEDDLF
Procedure: Mammalian Topoisomerase II Inhibition Assay Procedure
The assay quantitates the amount of topo II covalently complexed by DNA at equilibrium during a topo II reaction. This assay determines the potential of a compound to stabilize this complex, which potential is closely related to the cytotoxicity of the compound.
Assays (in duplicate) were assembled at 4° C.
4 ng 3' end labeled (^32 P) pBR322 DNA (10^7 DMP/μg)
The assay mix including the test compound was incubated for 20 minutes at 37° C. The reaction was terminated at 37° C. by the addition of 3 μl 10% SDS followed by the addition of 266 μl 10 mM Tris-Cl pH 7.5, 20 μg/ml BSA, 20 μg/ml calf thymus DNA, 1% SDS.
A SDS/protein precipitate was formed by the addition of 28 μl 2.5M KCl followed by chilling on ice for a minimum of 10 minutes. The precipitate was collected and washed with a Brandell cell harvester on a GFB glass fiber filter membrane as follows. The contents of the assay tube were drawn up into the harvester. The tube was then rinsed 7X with 10 mM Tris-Cl pH 7.5, 1 mM EDTA and 100 mM KCl. […] After drying, CPM was determined by liquid scintillation counting with 5 ml Biofluor (NEN Research Products) or Readisafe (Beckman Instruments Inc.) cocktail.
This solution then was diluted 1/5 into water and serially thereafter in either 0.02N sodium hydroxide or 0.04N hydrogen chloride, respectively. The stock solution and serial dilution of the test compound was stored at -20° C. prior to testing.
Screening of test compound--As an initial screen, the test compound was tested at a final concentration of 2, 20 and 200 μg/ml. The compound was then retested at a range of concentrations (usually 2-3X steps) bridging their approximate EC50 's, as estimated by the prescreen.
Controls--A solvent control which indicates the base level of topo II-DNA complex formed in the absence of the test compound was included in each test. A control, in which topo II was omitted, was included for each test compound at the highest drug concentration tested.
Reference Agent--A dose response curve with mAMSA at 0.01, 0.08, 0.16, 0.32, 1.0 and 10 μg/ml was included in each test.
The maximal DNA-topo II complex formed is taken as that equal to that formed at the nearly saturating dose of mAMSA (10 μg/ml).

[1] = In vivo antitumor assay, MX1(src); set-up: species or system human tumor in athymic NCR-nu mice; settings: mouse, in vivo, drug route ip, qd 1,5,9
Source text: (§1) Mice: Inbred: C3H/He and NCR-nu; and Hybrids: B6D2Fl (C57BL/6 females X DBA/2 males, CD2Fl (Balb/c females X DBS/2 males) and B6x C3fl (C57BL/6 x C3H) were bred at Wayne State University from strained obtained from the Frederick Cancer Research Facility, Frederick, Md. or purchased from commercial suppliers.
(§2) Tumors: Murine Tumor: P388 and an adriamycin-resistant (ADR) subline P388/ADR leukemia and the following transplantable solid tumors of mice were used for in Vivo testing: B16 melanoma (B16), pancreatic ductal adenocarcinoma No. 03 (Panc 03), colon adenocarcinoma No. 38 (colo 38), mammary ductal adenocarcinoma No. 16/C (Mam16) and an adriamycin-resistantsubline Mam16C/ADR. Human tumor: A single human tumor, mammary carcinoma MX-1 (MX1) was used for in vivo testing. All tumors are in the Developmental Therapeutics Program frozen tumor respository, maintained by the Biological Testing Branch, Frederick Md. Each has a detailed description, code identification number, and list of references at the National Tumor Repository. Murine tumors were maintained in the mouse strain of origin and were transplanted in the appropriate F1 hydrid (or the strain of origin) for therapy trials. Human mammary carcinoma MX-1 MX1) was maintained as a subcutaneous implant in either athymic Swiss (Cr: NIH(S)-nu) or athymic random bred (NCR-nu) mice and transplanted in NCR-nu for therapy trials.
(§3) For P388 and P388/ADR leukemia studies the tumor cells were implanted either IP or intravenously (IV) on day zero and treatment was started on day one. For B16 melanoma (B16) studies, the tumor cells were implanted IP on day zero and treatment was started on day one. Tirered controls were also included to facilitate the calculation of tumor cell kill. For mammary carcinoma MX-1 studies, tumors were implanted with 1) subcutaneously (sc) (14-mg fragment of s.c. donor tumor) in the axillary region or 2) under the subrenal capsule (src) (10×10×10 ocular micrometer unit fragment of s.c. donor tumor). Treatment started on the day after subrenal capsule tumor implant or when the subcutaneous tumor implant had reached 100-700 mg.
(§4) Quantitative end points used assess antitumor activity included % Increased Life Span (% ILS), Tumor Cell Kill (Log10 kill), and Tumor Growth Inhibition (T/C). Long Term Survivors (45 or 60 day) were excluded from calculations of % ILS and Tumor Cell Kill.
(§5) Tumors were measured with a caliper once or twice weekly (as needed) until either tumors exceeded 1600 mg or cure was assured. Tumor weights were estimated from two-dimensional measurements: Tumor Weight (mg)=(a×b^2) / 2, where a and b are the tumor length and width (nun) respectively. Measurements were carried out simultaneously in both treatment and control groups. When the control group tumors reached approximately 750-1500 mg in size (median of group), the median tumor weight of each group was determined (including zeros). The T/C value in percent is an indiation of antitumor effectiveness. The % T/C was calculated from the following formula for solid murine tumor models: [formula] where T and C are median tumor weights of the treatment and control groups, respectively. A T/C equal to or less than 42% is considered significant antitumor activity. A T/C value <10% is indicative of a high degree of antitumor activity and is the level used by National Cancer Institute to justify further development if other requirements are met (termed DN-2 level activity). By convention the T/C value for the mammary carcinoma MX-1 models is calculated by the parameter of change in tumor weight. The % T/C was calculated from the following formula for MX-1 models [formula] where ΔT and ΔC are the change in mean tumor weight of the test and control groups, respectively, and T (initial) is the initial mean tumor weight of the test group. […] A reproducible % T/C ≤10 is considered significant activity.

[2] = tested on: human mammary carcinoma MX-1 (MX1); experiment: In vivo antitumor assay, MX1(src); set-up: species or system human tumor in athymic NCR-nu mice; settings: drug route ip, qd 1,5,9, change in mean tumor weight
Source text: as §1, §2, §3, §4, §5

Row | Structure (SMILES) | EC50 (human topoisomerase II) [nM] | MTD [1] [mg/kg] | T/C % [2] [%]
1 | Cc1cc(-c2c(F)cc3c(=O)c(Cc4c(O)cccc4O)cn(C4CC4)c3c2F)cc(C)n1 [Example 26, 1-Cyclopropyl-6,8-difluoro-7-[2,6-dimethyl-4-pyridinyl]-3-[2,6-dihydroxyphenylmethyl]-1,4-dihydroquinoline-4-one] | 96 | 8.1 | 20
2 | Cc1cc(-c2c(F)cc3c(=O)c(Cc4ccccc4O)cn(C4CC4)c3c2F)cc(C)n1 [Example 30] | 330 | 304 | 6
3 | Cc1cc(-c2c(F)cc3c(=O)c(Cc4ccc(O)cc4O)cn(C4CC4)c3c2F)cc(C)n1 [Example 33] |  | 19 | 8
